Source: ChEMBL document CHEMBL5137013 (Eur J Med Chem, 2022)
Calls of active or inactive are those of the source. The calls are words filed in the database; no cut-off is given here.

Key:
MCF7 = assay: Cytotoxicity against human MCF7 cells assessed as reduction in cell viability measured after 24 hrs by MTT assay; conditions: MCF7, 24 h
MDA-MB-231 = assay: Cytotoxicity against human MDA-MB-231 cells assessed as reduction in cell viability measured after 24 hrs by MTT assay; type: functional, cell-based; conditions: MDA-MB-231, 24 h
A549 = assay: Cytotoxicity against human A549 cells assessed as reduction in cell viability measured after 24 hrs by MTT assay; conditions: A549, 24 h
HeLa = assay: Cytotoxicity against human HeLa cells assessed as reduction in cell viability measured after 24 hrs by MTT assay; type: functional, cell-based
HT-29 [1] = assay: Cytotoxicity against human HT-29 cells assessed as reduction in cell viability measured after 24 hrs by MTT assay; type: functional, cell-based; conditions: HT-29, 24 h
[2] = Cytotoxicity against human MCF7/TxR cells assessed as reduction in cell viability measured after 24 hrs by MTT assay; type: functional, cell-based
[3] = Cytotoxicity against human A549/TxR cells assessed as reduction in cell viability measured after 24 hrs by MTT assay; type: functional, cell-based
[4] = Resistance index, ratio of IC50 for human MCF7/TxR cells to IC50 for human MCF7 cells; type: functional
[5] = Resistance index, ratio of IC50 for human A549/TxR cells to IC50 for human A549 cells; type: functional
[6] = Inhibition of porcine brain tubulin polymerization measured at 1 min interval for 60 mins by fluorescence assay; parameters: species or system Sus scrofa
HT-29 [7] = assay: Antitumor activity against human HT-29 cells xenografted in BALB/c nude mouse assessed as reduction in tumor weight at 20 mg/kg, ip administered as 2 days interval for 3 weeks and measured 3 weeks post-initial dosing relative to control; type: functional; parameters: scale not given: the % may be the effect or the level left
[8] = Half-life in Sprague-Dawley rat at 10 mg/kg, iv by HPLC-MS/MS analysis; type: ADME, organism-based; conditions: in vivo
[9] = AUC in Sprague-Dawley rat at 10 mg/kg, iv by HPLC-MS/MS analysis; type: ADME, organism-based; parameters: dose 10 mg/kg, route iv; conditions: in vivo
[10] = Clearance in Sprague-Dawley rat at 10 mg/kg, iv by HPLC-MS/MS analysis; type: ADME, organism-based; conditions: in vivo
[11] = Tmax in Sprague-Dawley rat at 10 mg/kg, iv by HPLC-MS/MS analysis; type: ADME, organism-based; conditions: in vivo
[12] = Cmax in Sprague-Dawley rat at 10 mg/kg, iv by HPLC-MS/MS analysis; type: ADME, organism-based; parameters: dose 10 mg/kg, route iv; conditions: in vivo
Sus scrofa = species on record: Sus scrofa; assay: […] of porcine brain tubulin polymerization at 5 uM measured at 1 min interval for 60 mins by fluorescence assay
HT-29 [13] = assay: Antitumor activity against human HT-29 cells xenografted in BALB/c nude mouse assessed as reduction in tumor weight at 10 mg/kg, ip administered as 2 days interval for 3 weeks and measured 3 weeks post-initial dosing relative to control; type: functional; parameters: scale not given: the % may be the effect or the level left

Row | Compound | IC50 (MCF7) | IC50 (MDA-MB-231) | IC50 (A549) | IC50 (HeLa) | IC50 (HT-29 [1]) | other results
1 | COc1ccc(/C=C\c2cc(OC)c(OC)c(OC)c2)cc1O [COMBRETASTATIN A4] | 0.009 µM | 0.013 µM | 0.046 µM | 0.007 µM | 0.43 µM | IC50 [2]: 0.017 µM; IC50 [3]: 0.096 µM; Ratio IC50 [4]: 1.8; Ratio IC50 [5]: 2.1; IC50 [6]: 1.21 µM; Activity (HT-29 [7]): 17.4%
2 | COC(=O)c1cc2c(cc1Nc1cc(F)c(OC)c(F)c1)OCCO2 | > 20 µM | 4.1 µM | 1.55 µM | 5.22 µM | 4.47 µM | –
3 | COc1cc(C(=O)Nc2cc3c(cc2C(=O)NN)OCCO3)cc(OC)c1OC | > 20 µM | > 20 µM | > 20 µM | > 20 µM | > 20 µM | –
4 | COC(=O)c1cc2c(cc1Nc1cc(Br)c(OC)c(Br)c1)OCO2 | 6.46 µM | 11.7 µM | 2.64 µM | 3.4 µM | 2.02 µM | –
5 | COc1c(F)cc(Nc2cc3c(cc2C(N)=O)OCCO3)cc1F | 12.2 µM | 1.7 µM | 2.21 µM | 6.12 µM | 0.86 µM | –
6 | COC(=O)c1cc(OC)c(OC)cc1Nc1cc(OC)c(OC)c(OC)c1 | > 20 µM | > 20 µM | > 20 µM | > 20 µM | > 20 µM | –
7 | NNC(=O)c1cc2c(cc1Nc1ccc3c(c1)OCO3)OCCO2 | > 20 µM | > 20 µM | > 20 µM | 3.54 µM | 1.02 µM | –
8 | COc1cc2c(c(OC)c1OC)-c1ccc(OC)c(=O)cc1[C@@H](NC(C)=O)CC2 [COLCHICINE] | – | 0.097 µM | 0.031 µM | 0.008 µM | 0.25 µM | –
9 | COC(=O)c1cc2c(cc1Nc1ccc3c(c1)OCCO3)OCCO2 | 8.6 µM | 16.6 µM | 6.36 µM | 12.8 µM | 4.64 µM | –
10 | COC(=O)c1cc2c(cc1NC(=O)c1cc(F)c(OC)c(F)c1)OCCO2 | > 20 µM | > 20 µM | > 20 µM | > 20 µM | > 20 µM | –
11 | COc1cc([C@@H]2c3cc4c(cc3[C@H](O)[C@H]3COC(=O)[C@H]23)OCO4)cc(OC)c1OC [PODOFILOX] | 0.039 µM | 0.017 µM | 0.059 µM | 0.044 µM | 0.023 µM | IC50 [2]: 0.043 µM; IC50 [3]: 0.073 µM; Ratio IC50 [4]: 1.1; Ratio IC50 [5]: 1.2; t1/2 [8]: 12.6 min; AUC [9]: 2950 µg/L.hr; CL [10]: 56.5 mL/min/kg; Tmax [11]: 6 min; Cmax [12]: 3530 ng/mL
12 | COc1c(F)cc(C(=O)Nc2cc3c(cc2C(=O)NN)OCCO3)cc1F | > 20 µM | > 20 µM | > 20 µM | > 20 µM | > 20 µM | –
13 | COc1c(F)cc(Nc2cc3c(cc2C(=O)NN)OCCO3)cc1F | 15.4 µM | 5.92 µM | 1.2 µM | 2.56 µM | 1.31 µM | –
14 | COc1cc(Nc2cc3c(cc2C(=O)NN)OCCO3)cc(OC)c1OC | 0.37 µM | 0.36 µM | 0.74 µM | 0.32 µM | 0.13 µM | –
15 | COc1cc(C(=O)Nc2cc3c(cc2C(=O)O)OCCO3)cc(OC)c1OC | > 20 µM | > 20 µM | > 20 µM | > 20 µM | > 20 µM | –
16 | COC(=O)c1cc2c(cc1Nc1cc(OC)c(OC)c(OC)c1)OCO2 | 0.98 µM | 0.74 µM | 2.67 µM | 0.39 µM | 0.38 µM | –
17 | COC(=O)c1cc2c(cc1Nc1ccc(OC)cc1)OCCO2 | > 20 µM | > 20 µM | > 20 µM | > 20 µM | > 20 µM | –

Row | Compound | IC50 (MCF7) | IC50 (MDA-MB-231) | IC50 (A549) | IC50 (HeLa) | IC50 (HT-29 [1]) | other results
18 | COC(=O)c1cc2c(cc1Nc1ccc3c(c1)OCO3)OCCO2 | 11.2 µM | 3.13 µM | > 20 µM | 5.55 µM | 4.61 µM | –
19 | COC(=O)c1cc(OC)c(OC)cc1Nc1cc(Br)c(OC)c(Br)c1 | > 20 µM | > 20 µM | > 20 µM | > 20 µM | > 20 µM | –
20 | COc1ccc(Nc2cc3c(cc2C(N)=O)OCCO3)cc1OC | 13.1 µM | > 20 µM | 0.91 µM | 5.29 µM | 0.85 µM | –
21 | COc1ccc(Nc2cc3c(cc2C(=O)NN)OCCO3)cc1 | > 20 µM | > 20 µM | > 20 µM | > 20 µM | > 20 µM | –
22 | COc1cc(Nc2cc3c(cc2C(=O)O)OCCO3)cc(OC)c1OC | 6.76 µM | 6.79 µM | 11.5 µM | 2.91 µM | 2.16 µM | –
23 | COC(=O)c1cc2c(cc1Nc1cc(Br)c(OC)c(Br)c1)OCCO2 | 3.37 µM | 6.46 µM | 10.1 µM | 2.49 µM | 1.47 µM | –
24 | COc1c(F)cc(Nc2cc3c(cc2C(=O)NN)OCO3)cc1F | > 20 µM | > 20 µM | > 20 µM | 5.88 µM | 3.65 µM | –
25 | COc1c(Br)cc(Nc2cc3c(cc2C(=O)NN)OCCO3)cc1Br | 0.44 µM | 0.47 µM | 1.14 µM | 0.24 µM | 0.23 µM | –
26 | COC(=O)c1cc2c(cc1NC(=O)c1cc(OC)c(OC)c(OC)c1)OCCO2 | > 20 µM | > 20 µM | > 20 µM | > 20 µM | > 20 µM | –
27 | COc1cc(Nc2cc3c(cc2C(=O)NN)OCO3)cc(OC)c1OC | 1.97 µM | 1.36 µM | 1.4 µM | 1.19 µM | 0.53 µM | –
28 | COc1c(Br)cc(Nc2cc3c(cc2C(=O)O)OCO3)cc1Br | 16 µM | 5.6 µM | 15.9 µM | 6.9 µM | 3.13 µM | –
29 | CC(=O)O[C@H]1C(=O)[C@@]2(C)[C@H]([C@H](OC(=O)c3ccccc3)[C@]3(O)C[C@H](OC(=O)[C@H](O)[C@@H](NC(=O)c4ccccc4)c4ccccc4)C(C)=C1C3(C)C)[C@]1(OC(C)=O)CO[C@@H]1C[C@@H]2O [PACLITAXEL] | – | 0.007 µM | – | 0.039 µM | 0.011 µM | IC50 [2]: 8.35 µM; IC50 [3]: 2.92 µM; Activity (Sus scrofa): Active; Activity (HT-29 [13]): 77.1%
30 | COC(=O)c1cc2c(cc1Nc1ccc(OC)c(OC)c1)OCCO2 | 11.3 µM | 5.46 µM | 1 µM | 2.11 µM | 0.55 µM | –
31 | COC(=O)c1cc2c(cc1Nc1cc(F)c(OC)c(F)c1)OCO2 | > 20 µM | > 20 µM | > 20 µM | 10.6 µM | 8.53 µM | –
32 | COc1cc(Nc2cc3c(cc2C(=O)O)OCO3)cc(OC)c1OC | 15.1 µM | 2.3 µM | 5.42 µM | 5.18 µM | 1.41 µM | –
33 | COC(=O)c1cc2c(cc1NC(=O)c1cc(Br)c(OC)c(Br)c1)OCCO2 | > 20 µM | > 20 µM | > 20 µM | > 20 µM | > 20 µM | –
